The values that follow come from patent US12404295B2, “(Hetero)aryl-methyl-thio-beta-D-galactopyranoside derivatives” (Idorsia Pharmaceuticals Ltd, priority 2019, dated 2025).

SMILES strings stand for the structures. Read-outs that look alike come from different tables or passages of the source.

One experiment has as its target human Gal-1 (hGal-1) (Homo sapiens (Human), UniProt P09382). The experiment can be described thus: competitive binding assay: biotinylated hGal-1 binding to microplate-adsorbed asialofetuin (ASF). As to conditions: Table 15; read-out: IC50 (Galectin-1 inhibition). The method, boiled down: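 Spectrophotometric competition readout: after compound and biotinylated hGal-1 (300-1000 ng/mL) sit 3 h at 4° C on adsorbed asialofetuin, streptavidin-peroxidase (1 h, 4° C) and ABTS reveal residual binding. Reported IC50 values are means of repeat runs.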

A further experiment deals with human Gal-3 (hGal-3) (Homo sapiens (Human), UniProt P17931). Briefly: competitive binding assay: biotinylated hGal-3 binding to microplate-adsorbed asialofetuin (ASF). The method, boiled down: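 Serially diluted compounds compete with biotinylated hGal-3 binding to adsorbed asialofetuin (3 hours, 4° C). After washing, streptavidin-peroxidase at 80 ng/mL for 1 hour at 4° C, with ABTS colour read-out. IC50 values are averaged over repeated runs.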

Setting [1] is: Gal-3 inhibition, binding of biotinylated hGal-3 to ASF, mean values, read-out: IC50.
The mark [2] stands for this setting: Table 10, 2-OMe-Gal inhibitors, read-out: IC50 (Gal-3 inhibition).

human Gal-3 (hGal-3), sequence (P17931 whole entry): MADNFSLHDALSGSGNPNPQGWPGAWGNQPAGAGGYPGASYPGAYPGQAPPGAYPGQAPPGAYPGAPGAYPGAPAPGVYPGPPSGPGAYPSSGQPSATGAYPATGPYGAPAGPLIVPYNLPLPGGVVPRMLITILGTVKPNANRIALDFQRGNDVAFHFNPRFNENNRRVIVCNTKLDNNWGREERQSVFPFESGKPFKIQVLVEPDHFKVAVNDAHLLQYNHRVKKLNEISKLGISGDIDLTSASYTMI
human Gal-1 (hGal-1), sequence (P09382 whole entry): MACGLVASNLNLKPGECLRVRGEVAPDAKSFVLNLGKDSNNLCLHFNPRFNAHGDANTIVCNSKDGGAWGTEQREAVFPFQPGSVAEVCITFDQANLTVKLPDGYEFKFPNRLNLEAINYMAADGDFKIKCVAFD

As a reminder, the IC50 is the concentration that gives 50% inhibition. With `CO[C@@H]1[C@@H](n2cc(-c3ccc(Br)c(F)c3)nn2)[C@@H](O)[C@@H](CO)O[C@H]1SC(c1ncccc1C)C1(O)CCC(F)(F)CC1` (stereo partly drawn) [Example 12.44.126.I., (2R,3R,4S,5R,6S)-4-(4-(4-Bromo-3-fluorophenyl)-1H-1,2,3-triazol-1-yl)-6-(((4,4-difluoro-1-hydroxycyclohexyl)(3-methylpyridin-2-yl)methyl)thio)-2-(hydroxymethyl)-5-methoxytetrahydro-2H-pyran-3-ol], the IC50 on human Gal-1 (hGal-1) is 3240 nM; at human Gal-3 (hGal-3) (Table 14, read-out: IC50 (Gal-3 inhibition)) it was 190 nM.
Turning to `OC[C@H]1O[C@@H](SC(c2nccnc2Cl)C2(O)CCC(F)(F)CC2)[C@H](O)[C@@H](n2cc(-c3cc(F)c(F)c(F)c3)nn2)[C@H]1O` (stereo partly drawn) [Example 2.44.133., (2S,3R,4S,5R,6R)-2-(((3-Chloropyrazin-2-yl)(4,4-difluoro-1-hydroxycyclohexyl)methyl)thio)-6-(hydroxymethyl)-4-(4-(3,4,5-trifluorophenyl)-1H-1,2,3-triazol-1-yl)tetrahydro-2H-pyran-3,5-diol], the IC50 at human Gal-1 (hGal-1) was 450 nM; at human Gal-3 (hGal-3) (setting [1]) it was 40 nM.
Take `CCc1c([C@@H](S[C@@H]2O[C@H](CO)[C@H](O)[C@H](n3cc(-c4cc(F)c(F)c(F)c4)nn3)[C@H]2OC)C2(O)CCC(F)(F)CC2)noc1C1CC1` [Example 2.44.130R.I.]: the values for the IC50 on human Gal-1 (hGal-1) and on human Gal-3 (hGal-3) (setting [2]) were 160 nM and 60 nM, respectively.
`CC(C)(O)[C@H](S[C@@H]1O[C@H](CO)[C@H](O)[C@H](n2cc(-c3cc(F)c(F)c(F)c3)nn2)[C@H]1O)c1ccccc1Cl` [Example 2.31.111R., (2S,3R,4S,5R,6R)-2-(((R)-1-(2-Chlorophenyl)-2-hydroxy-2-methylpropyl)thio)-6-(hydroxymethyl)-4-(4-(3,4,5-trifluorophenyl)-1H-1,2,3-triazol-1-yl)tetrahydro-2H-pyran-3,5-diol]: the IC50 was 3190 nM on human Gal-1 (hGal-1) and 380 nM on human Gal-3 (hGal-3) (setting [1]).
As to `CC(C)(O)C(S[C@@H]1O[C@H](CO)[C@H](O)[C@H](n2cc(-c3ccc(C#N)c(F)c3)nn2)[C@H]1O)c1ccccc1C(F)(F)F` (stereo partly drawn) [Example 5.31.112., 4-(1-((2S,3R,4S,5R,6R)-3,5-Dihydroxy-2-((2-hydroxy-2-methyl-1-(2-(trifluoromethyl)phenyl)propyl)thio)-6-(hydroxymethyl)tetrahydro-2H-pyran-4-yl)-1H-1,2,3-triazol-4-yl)-2-fluorobenzonitrile], the results for the IC50 at human Gal-1 (hGal-1) and on human Gal-3 (hGal-3) (setting [1]) were 3580 nM and 1500 nM, respectively.
Turning to `CC(C)(O)[C@@H](S[C@@H]1O[C@H](CO)[C@H](O)[C@H](n2cc(-c3cc(F)c(F)c(F)c3)nn2)[C@H]1O)c1ccccc1C1CC1` [Example 2.31.106S., (2S,3R,4S,5R,6R)-2-(((S)-1-(2-cyclopropylphenyl)-2-hydroxy-2-methylpropyl)thio)-6-(hydroxymethyl)-4-(4-(3,4,5-trifluorophenyl)-1H-1,2,3-triazol-1-yl)tetrahydro-2H-pyran-3,5-diol], the IC50 stood at 65000 nM on human Gal-1 (hGal-1) and 15900 nM on human Gal-3 (hGal-3) (setting [1]).
Turning to `Cc1nc(C)c(C(S[C@@H]2O[C@H](CO)[C@H](O)[C@H](n3cc(-c4cc(F)c(F)c(F)c4)nn3)[C@H]2O)C(C)(C)O)nc1C` (stereo partly drawn) [Example 2.31.119., (2S,3R,4S,5R,6R)-2-((2-Hydroxy-2-methyl-1-(3,5,6-trimethylpyrazin-2-yl)propyl)thio)-6-(hydroxymethyl)-4-(4-(3,4,5-trifluorophenyl)-1H-1,2,3-triazol-1-yl)tetrahydro-2H-pyran-3,5-diol], the IC50 at human Gal-1 (hGal-1) is 1750 nM; on human Gal-3 (hGal-3) (setting [1]), 230 nM.
In the same order, the values of `CC(C)c1ccccc1C(CO)S[C@@H]1O[C@H](CO)[C@H](O)[C@H](n2cc(-c3cc(F)c(F)c(F)c3)nn2)[C@H]1O` (stereo partly drawn) [Example 2.30.105., (2S,3R,4S,5R,6R)-2-((2-Hydroxy-1-(2-isopropylphenyl)ethyl)thio)-6-(hydroxymethyl)-4-(4-(3,4,5-trifluorophenyl)-1H-1,2,3-triazol-1-yl)tetrahydro-2H-pyran-3,5-diol] are 1730 nM and 400 nM.
For `CO[C@@H]1[C@@H](n2cc(-c3cc(F)c(F)c(F)c3)nn2)[C@@H](O)[C@@H](CO)O[C@H]1S[C@H](c1ccccc1C1CC1)C1(O)CCC(F)(F)CC1` [Example 2.44.106R.I., (2R,3R,4S,5R,6S)-6-(((R)-(2-Cyclopropylphenyl)(4,4-difluoro-1-hydroxycyclohexyl)methyl)thio)-2-(hydroxymethyl)-5-methoxy-4-(4-(3,4,5-trifluorophenyl)-1H-1,2,3-triazol-1-yl)tetrahydro-2H-pyran-3-ol], the IC50 was found to be 210 nM on human Gal-1 (hGal-1) and 180 nM at human Gal-3 (hGal-3) (setting [2]).
Turning to `CCC(O)(CC)[C@H](S[C@@H]1O[C@H](CO)[C@H](O)[C@H](n2cc(-c3cc(F)c(F)c(F)c3)nn2)[C@H]1O)c1conc1C` [Example 2.32.120R., (2S,3R,4S,5R,6R)-2-(((R)-2-Ethyl-2-hydroxy-1-(3-methylisoxazol-4-yl)butyl)thio)-6-(hydroxymethyl)-4-(4-(3,4,5-trifluorophenyl)-1H-1,2,3-triazol-1-yl)tetrahydro-2H-pyran-3,5-diol], the results for the IC50 on human Gal-1 (hGal-1) and at human Gal-3 (hGal-3) (setting [1]) were 2830 nM and 1220 nM, respectively.
For the compound `CO[C@@H]1[C@@H](n2cc(-c3cc(F)c(F)c(F)c3)nn2)[C@@H](O)[C@@H](CO)O[C@H]1SC(c1ncccc1Cl)C1(O)CCC(F)(F)CC1` (stereo partly drawn) [Example 2.44.137.I., (2R,3R,4S,5R,6S)-6-(((3-Chloropyridin-2-yl)(4,4-difluoro-1-hydroxycyclohexyl)methyl)thio)-2-(hydroxymethyl)-5-methoxy-4-(4-(3,4,5-trifluorophenyl)-1H-1,2,3-triazol-1-yl)tetrahydro-2H-pyran-3-ol], the IC50 on human Gal-1 (hGal-1) is 4360 nM; at human Gal-3 (hGal-3) (Table 9, 2-OMe-Gal inhibitors, read-out: IC50 (Gal-3 inhibition)) it was 140 nM.
Take `CC(C)(O)[C@@H](S[C@@H]1O[C@H](CO)[C@H](O)[C@H](n2cc(-c3cc(F)c(F)c(F)c3)nn2)[C@H]1O)c1ccccc1C(F)(F)F` [Example 2.31.112S., (2S,3R,4S,5R,6R)-2-(((S)-2-Hydroxy-2-methyl-1-(2-(trifluoromethyl)phenyl)propyl)thio)-6-(hydroxymethyl)-4-(4-(3,4,5-trifluorophenyl)-1H-1,2,3-triazol-1-yl)tetrahydro-2H-pyran-3,5-diol]: the IC50 was 26400 nM on human Gal-1 (hGal-1) and 7070 nM at human Gal-3 (hGal-3) (setting [1]).
In the same order, the values of `Cc1cccnc1[C@@H](S[C@@H]1O[C@H](CO)[C@H](O)[C@H](n2cc(-c3cc(F)c(F)c(F)c3)nn2)[C@H]1O)C1(O)CCS(=O)(=O)CC1` [Example 2.66.126R., 4-((R)-(((2S,3R,4S,5R,6R)-3,5-Dihydroxy-6-(hydroxymethyl)-4-(4-(3,4,5-trifluorophenyl)-1H-1,2,3-triazol-1-yl)tetrahydro-2H-pyran-2-yl)thio)(3-methylpyridin-2-yl)methyl)-4-hydroxytetrahydro-2H-thiopyran 1,1-dioxide] are 170 nM and 20 nM.
For the compound `Cc1nc([C@@H](S[C@@H]2O[C@H](CO)[C@H](O)[C@H](n3cc(-c4cc(F)c(F)c(F)c4)nn3)[C@H]2O)C(C)(C)O)c(C)o1` [Example 2.31.122R., (2S,3R,4S,5R,6R)-2-(((R)-1-(2,5-Dimethyloxazol-4-yl)-2-hydroxy-2-methylpropyl)thio)-6-(hydroxymethyl)-4-(4-(3,4,5-trifluorophenyl)-1H-1,2,3-triazol-1-yl)tetrahydro-2H-pyran-3,5-diol], the IC50 turned out to be 670 nM on human Gal-1 (hGal-1) and 370 nM on human Gal-3 (hGal-3) (setting [1]).
